Values of other authors in US10689308B2, “Solvent for thiophosphoric triamide or dicyandiamide solutions, and related methods” (RHODIA OPERATIONS, priority 2014, dated 2020).

Details: dicyandiamide in a solid form; background statement

solubility in water: about 41 grams per liter
SMILES: N#CNC(=N)N [Dicyandiamide]
